The source of these data is patent publication US20260130936A1, “COMPOSITIONS COMPRISING AN ACTIVE INGREDIENT MIXTURE COMPRISING SILICON AND BIOTIN AND METHODS OF USE” (Nutrition21, LLC, priority 2022, published 2026).

The conditions of data set [1]: preclinical models; compared to D-biotin; cited from earlier work.
The next data set in a line: Water solubility. It counts as physicochemical. To be noted: greater than biotin.
Another data set concerns hair and nail growth. As to the kind of experiment: Hair density, anagen ratio, telogen ratio, nail growth and molecular analysis in rats (Example 4). It counts as in vivo, Sprague-Dawley rats. The method, then:
Twenty-eight female Sprague-Dawley rats (8 weeks old) were randomized into one of the following groups: (i) group (control), shaved; (ii) group (ASI), shaved+ASI (4.14 mg/rat/day); (iii) group (ASI+MgB I), shaved+ASI (4.14 mg/rat/day)+MgB (48.7 μg/rat/day); and (iv) group (ASI+MgB II), shaved+ASI (4.14 mg/rat/day)+MgB (325 μg/rat/day). On day 42, compared with the control group, while hair density (p<0.05, p<0.01, and p<0.0001, respectively) and anagen ratio (p<0.01, p<0.01, and p<0.001) increased in the ASI, ASI+MgB I, and ASI+MgB II groups, telogen ratio decreased (p<0.01, p<0.01, and p<0.001, respectively). In the molecular analysis, VEGF, HGF, and KGF-2 increased in the ASI (p<0.01, p<0.01, and p<0.05, respectively), ASI+MgB I (p<0.0001 for all), and ASI+MgB II (p<0.0001 for all) groups when compared to the control group. […] SIRT-1 and β-catenin increased in the ASI (p<0.05 and p<0.01), ASI+MgB I (p<0.001 for both), and ASI+MgB II (p<0.0001 for both) groups. Wnt-1 increased in the ASI+MgB I (p<0.001) and ASI+MgB II (p<0.0001) groups.

Where [2] appears, read: day 42, compared with the control group.

magnesium biotinate: the “absorption and uptake in tissue” value in data set [1] is “superior absorption and greater uptake in tissue”. The “water solubility relative to biotin” value in the data set “Water solubility” is “about 40 times”.
On to “inositol-stabilized arginine silicate complex [ASI]”, for which, in the data set on hair and nail growth (setting [2]), the anagen ratio entry is “increased”, the hair density result is recorded as “increased” and the telogen ratio entry is on record as “decreased”. The “SIRT-1 and β-catenin” value with hair and nail growth (molecular analysis) is “increased”. Besides, the “VEGF, HGF, and KGF-2” value in the data set on hair and nail growth (molecular analysis, compared to the control group) is “increased”. Further, the nail growth entry in the data set on hair and nail growth (rats) is given as “did not affect nail growth”.
